Read-outs that look alike come from different tables or passages of the source.
Columns and labels:
[1] = biological target: T1, human full length PIK3KA H1047R mutant (p110α/p85α complex) (Homo sapiens, UniProt P42336, H1047R); experiment: PI3K-Alpha Kinase (PIK3CA) biochemical activity, H1047R mutant (ADP-Glo); conditions: Soy PI lipid substrate, 20 uM ATP
T1 construct: Recombinant, catalytically active human full length PIK3KA Wild-type and H1047R mutant were purchased; 6xHis (N); purchased EMD Millipore Sigma 14-792M
T1 sequence (P42336 whole entry H1047R): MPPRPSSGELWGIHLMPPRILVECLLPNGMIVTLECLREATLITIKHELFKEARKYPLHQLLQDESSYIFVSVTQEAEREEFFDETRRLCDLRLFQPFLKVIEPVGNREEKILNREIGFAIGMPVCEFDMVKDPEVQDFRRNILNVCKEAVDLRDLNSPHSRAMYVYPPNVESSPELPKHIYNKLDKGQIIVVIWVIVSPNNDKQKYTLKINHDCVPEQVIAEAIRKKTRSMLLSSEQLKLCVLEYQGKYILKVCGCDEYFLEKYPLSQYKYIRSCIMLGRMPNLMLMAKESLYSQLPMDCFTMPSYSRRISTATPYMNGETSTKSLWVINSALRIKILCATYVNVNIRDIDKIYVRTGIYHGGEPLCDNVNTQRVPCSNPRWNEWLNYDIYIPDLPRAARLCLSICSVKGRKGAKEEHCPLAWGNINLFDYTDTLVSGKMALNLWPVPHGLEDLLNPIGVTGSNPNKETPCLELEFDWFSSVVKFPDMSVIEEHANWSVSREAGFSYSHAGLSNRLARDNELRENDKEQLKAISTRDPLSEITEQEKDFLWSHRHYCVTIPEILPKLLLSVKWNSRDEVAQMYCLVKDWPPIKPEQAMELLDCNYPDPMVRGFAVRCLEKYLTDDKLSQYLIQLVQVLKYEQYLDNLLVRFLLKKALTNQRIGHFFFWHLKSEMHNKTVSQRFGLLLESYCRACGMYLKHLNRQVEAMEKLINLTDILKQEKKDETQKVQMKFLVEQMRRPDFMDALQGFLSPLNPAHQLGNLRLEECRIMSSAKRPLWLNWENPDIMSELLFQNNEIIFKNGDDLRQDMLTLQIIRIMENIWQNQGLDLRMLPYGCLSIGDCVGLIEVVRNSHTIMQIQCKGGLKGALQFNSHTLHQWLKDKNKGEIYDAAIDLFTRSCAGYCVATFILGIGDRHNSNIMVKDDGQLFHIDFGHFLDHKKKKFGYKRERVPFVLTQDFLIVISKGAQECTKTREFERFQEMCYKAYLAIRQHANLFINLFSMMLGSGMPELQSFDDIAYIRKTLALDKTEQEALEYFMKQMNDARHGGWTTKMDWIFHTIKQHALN
T1 sequence (P27986 whole entry partner): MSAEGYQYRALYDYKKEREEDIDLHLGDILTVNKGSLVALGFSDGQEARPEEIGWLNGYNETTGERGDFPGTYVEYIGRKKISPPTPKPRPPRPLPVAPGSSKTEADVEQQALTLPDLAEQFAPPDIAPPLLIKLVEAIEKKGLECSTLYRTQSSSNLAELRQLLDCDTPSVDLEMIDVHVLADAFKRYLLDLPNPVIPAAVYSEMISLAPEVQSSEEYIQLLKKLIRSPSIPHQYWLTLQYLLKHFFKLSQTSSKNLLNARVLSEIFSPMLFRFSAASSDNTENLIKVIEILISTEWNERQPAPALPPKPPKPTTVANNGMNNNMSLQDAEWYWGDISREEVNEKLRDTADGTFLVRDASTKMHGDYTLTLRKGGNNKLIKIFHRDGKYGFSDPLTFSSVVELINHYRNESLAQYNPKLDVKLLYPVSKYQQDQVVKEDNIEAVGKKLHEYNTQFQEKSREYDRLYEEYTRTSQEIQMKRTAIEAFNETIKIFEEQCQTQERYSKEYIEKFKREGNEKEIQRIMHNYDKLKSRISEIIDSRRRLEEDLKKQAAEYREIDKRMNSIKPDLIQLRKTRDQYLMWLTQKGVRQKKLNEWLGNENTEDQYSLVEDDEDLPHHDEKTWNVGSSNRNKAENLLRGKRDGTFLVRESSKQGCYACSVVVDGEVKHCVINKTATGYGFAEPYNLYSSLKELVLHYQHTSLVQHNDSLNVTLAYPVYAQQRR
How it was run: (§1)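 ADP formation, measured by ADP-Glo luminescence after reaction to about 10% ATP conversion at 27° C., gives 10-point 4-parameter IC50 curves normalized to no-enzyme and DMSO controls. Lipid substrate was PIP2diC8 or Soy PI at 50 uM, with 20 uM ATP. WT or H1047R p110α/p85α complex (1-5 nM) was preincubated 1 h with compound.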

[2] = biological target: T2, human full length PIK3KA Wild-type (p110α/p85α complex) (Homo sapiens, UniProt P42336); experiment: PI3K-Alpha Kinase (PIK3CA) biochemical activity, wild-type (ADP-Glo); conditions: Soy PI lipid substrate, 20 uM ATP
T2 construct: Recombinant, catalytically active human full length PIK3KA Wild-type and H1047R mutant were purchased; 6xHis (N); purchased EMD Millipore Sigma 14-602M
How it was run: as §1

[3] = biological target: PI3K-α (PIK3CA) in MDA-MB-453 cells (Homo sapiens, UniProt P42336); experiment: PI3K-Alpha Kinase (PIK3CA) activity in vitro cell based assay (AlphaLisa SureFire)
PI3K-α (PIK3CA) in MDA-MB-453 cells, sequence (P42336 whole entry): as the sequence (P42336 whole entry H1047R) above, with R1047H counted along it
PI3K-α (PIK3CA) in MDA-MB-453 cells, sequence (P27986 2-724, further chain): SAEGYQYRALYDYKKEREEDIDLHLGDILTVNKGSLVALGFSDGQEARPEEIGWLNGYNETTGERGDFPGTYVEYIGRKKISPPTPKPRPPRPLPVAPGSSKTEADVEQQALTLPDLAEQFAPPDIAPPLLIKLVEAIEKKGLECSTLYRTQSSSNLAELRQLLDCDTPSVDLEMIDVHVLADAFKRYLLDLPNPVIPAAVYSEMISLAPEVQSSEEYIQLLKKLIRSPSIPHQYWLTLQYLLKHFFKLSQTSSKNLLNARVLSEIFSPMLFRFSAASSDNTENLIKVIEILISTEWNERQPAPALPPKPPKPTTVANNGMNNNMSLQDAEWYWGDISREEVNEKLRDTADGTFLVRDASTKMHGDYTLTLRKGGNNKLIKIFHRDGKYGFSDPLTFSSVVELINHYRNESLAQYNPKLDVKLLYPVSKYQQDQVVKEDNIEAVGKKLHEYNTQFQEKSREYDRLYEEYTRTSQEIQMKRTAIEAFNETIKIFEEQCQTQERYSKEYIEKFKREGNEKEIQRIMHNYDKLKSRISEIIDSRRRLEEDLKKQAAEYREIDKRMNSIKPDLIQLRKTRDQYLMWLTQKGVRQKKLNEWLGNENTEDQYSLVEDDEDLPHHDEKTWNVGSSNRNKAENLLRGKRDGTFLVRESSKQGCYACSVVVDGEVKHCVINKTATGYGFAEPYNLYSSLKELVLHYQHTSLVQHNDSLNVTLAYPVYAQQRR
Experimental: PI3K-Alpha Kinase (PIK3CA) Activity In Vitro Cell Based Assay and Determining IC50 Values for Inhibitors
The MDA-MB-453 (ATCC-HTB-131) cell line was obtained from the American Type Culture Collection (Manassas, Va.). Cells were maintained in Dulbecco's Modified Eagle Media (DMVEM, Gibco 11965-092) supplemented with 10% Fetal Bovine Serum, heat inactivated (FBS HI, Gibco 10082-147), 1× non-essential amino acids (NEAA, Gibco 11140-050), and 1 mM sodium pyruvate (Gibco 11360-070). Cultures were maintained in a humidified incubator at 37° C. under […].
For compound testing in 0% FBS, MDA-MB-453 cells were seeded at a density of 1.5×10^4 cells per well in white 384-well plates in 20 μl of Minimum Essential Media (MEM) assay media with 1×NEAA, 1 mM sodium pyruvate, and 1 μg/mL human insulin (Sigma I9278). Compounds dissolved in 10 mM stock solutions in DMSO were serially diluted 1:3 in DMSO to generate a 10-point dilution series and plated using an acoustic liquid handler system (Echo 550 Series Liquid Handler, Labcyte). A 5× intermediate compound dilution plate in MEM with 1×NEAA and 1 mM sodium pyruvate (150 μM starting compound concentration in 1.5% DMSO) was then prepared. Five μl of the intermediate serially diluted compounds were added to the cell plate to final concentrations ranging from […] in 0.3% DMSO. 0.3% DMSO alone was used to establish the maximum (MAX) signal and GDC-0032 at a final concentration of 1 μM was used as a reference compound for the minimum (MIN) signal. After 3 hours treatment, the medium was removed, and the cells lysed in 10 μL of 1× SureFire Lysis buffer with shaking for 10 minutes at room temperature. The Acceptor Mix (Reaction Buffer 1+Reaction Buffer 2+Activation Buffer+SureFire Ultra Acceptor Beads) was prepared by diluting Activation buffer 25-fold in combined Reaction Buffer 1 and Reaction Buffer 2. The Acceptor beads were diluted 50-fold in the combined Reaction Buffers. Five μL of Acceptor Mix was added to each well, the plate was sealed and covered with foil and incubated for 1 hour at room temperature. The Donor Mix (dilution buffer+SureFire Ultra Donor Beads) was prepared by diluting Donor Beads 50-fold in dilution buffer. Five μL of the Donor Mix was added to each well and the plate sealed and covered with foil and incubated for 1 hour at room temperature in the dark. The plates were read on a Neo2 plate reader instrument from Biotek using standard AlphaLisa settings.
Compounds were tested in duplicate and the average % inhibition at each compound concentration was used to generate a single dose response curve. The data were processed using the Genedata-Screener tool. Relative IC50 values were determined using luminescence units by calculating percent inhibition with respect to the in-plate “MIN” (GDC-0032 reference control) and “MAX” (DMSO) controls. The data was analyzed using a 4-parameter nonlinear logistic equation (four-parameter logistic concentration-response curve):
Y=bottom+[(top−bottom)/1+(X/IC50)slope]
where Y=% inhibition, X=concentration of inhibitor, bottom=minimum value of y attained by curve-fit, top=maximum value of y attained by curve-fit and slope=steepness of curve at the IC50.
% Inhibition=[(signal at X−median Min)/(median Max−median Min)]×100
IC50: concentration of compound that reduces a given response (ligand binding, enzyme response) by 50%. Relative IC50: concentration giving half the compound's maximum response.
For IC50 values shown in Table B, “A” means IC50<50 nM; “B” means IC50 ranging between 50 nM and 100 nM; “C” means IC50 ranging between 100 nM and 500 nM; “D” means IC50>500 nM.

[4] = 0% FBS, 3 hours treatment, read-out: PI3K-α (PIK3CA) in vitro cell based assay IC50
[5] = read-out: PI3K-α (PIK3CA) in vitro cell based assay IC50, 0% FBS, 3 hours treatment

| Structure (SMILES) | IC50 [1] | IC50 [2] | IC50 [3, 4] | IC50 [3, 5] |
| --- | --- | --- | --- | --- |
| Cc1c(-c2cncc(F)c2)oc2c(C(C)Nc3ccc(Cl)nc3C(=O)O)cc(C(F)(F)F)cc2c1=O (single isomer, unassigned; isomer 1) [Example 97, 6-Chloro-3-[1-[2-(5-fluoro-3-pyridyl)-3-methyl-4-oxo-6-(trifluoromethyl)chromen-8-yl]ethylamino]pyridine-2-carboxylic acid, Isomer 1] | < 500 nM | 1000 to 5000 nM | < 50 nM |  |
| Cc1cc(C(C)Nc2ccc(Cl)nc2C(=O)O)c2oc(-c3ccccn3)c(C)c(=O)c2c1 (single isomer, unassigned; isomer 1) [Example 60, 6-Chloro-3-[1-[3,6-dimethyl-4-oxo-2-(2-pyridyl)chromen-8-yl]ethylamino]pyridine-2-carboxylic acid, Isomer 1] | < 500 nM | 500 to 1000 nM | < 50 nM |  |
| Cc1cc(C(C)Nc2ccccc2C(=O)O)c2oc(-c3ccccn3)c(C)c(=O)c2c1 (single isomer, unassigned; isomer 1) [Example 24, 2-[1-[3,6-Dimethyl-4-oxo-2-(2-pyridyl)chromen-8-yl]ethylamino]benzoic acid, Isomer 1] | < 500 nM | 1000 to 5000 nM | < 50 nM |  |
| Cc1cc(C(C)Nc2ccc(C(F)(F)F)cc2C(=O)O)c2oc(-c3cccnc3)c(C)c(=O)c2c1 (single isomer, unassigned; isomer 1) [Example 119, 2-[1-[3,6-Dimethyl-4-oxo-2-(3-pyridyl)chromen-8-yl]ethylamino]-5-(trifluoromethyl)benzoic acid, Isomer 1] | < 500 nM | 1000 to 5000 nM | 50 to 100 nM |  |
| Cc1cc(C(C)Nc2ccc(C)nc2C(=O)O)c2oc(-c3cccnc3)c(C)c(=O)c2c1 (single isomer, unassigned; isomer 1) [Example 118, 3-[1-[3,6-Dimethyl-4-oxo-2-(3-pyridyl)chromen-8-yl]ethylamino]-6-methyl-pyridine-2-carboxylic acid, Isomer 1] | < 500 nM | 1000 to 5000 nM | 50 to 100 nM |  |
| Cc1cc(C(C)Nc2ccccc2C(=O)O)c2oc(-c3ccc(C4(C#N)CC4)nc3)c(C)c(=O)c2c1 (single isomer, unassigned) [Example 89, 2-[1-[2-[6-(1-Cyanocyclopropyl)-3-pyridyl]-3,6-dimethyl-4-oxo-chromen-8-yl]ethylamino]benzoic acid, Isomer 1,2,2,2-trifluoroacetic acid] | < 500 nM | 1000 to 5000 nM |  | < 50 nM |
| Cc1cc(C(C)Nc2ccccc2C(=O)O)c2oc(-c3cnn(C(F)F)c3)cc(=O)c2c1 (single isomer, unassigned) [Example 52, 2-[1-[2-[1-(Difluoromethyl)pyrazol-4-yl]-6-methyl-4-oxo-chromen-8-yl]ethylamino]benzoic acid, Isomer 2,2,2,2-trifluoroacetic acid] | < 500 nM | 1000 to 5000 nM |  | 50 to 100 nM |
| Cc1cc(C(C)Nc2cccc(F)c2C(=O)O)c2oc(-c3ccccn3)cc(=O)c2c1 (single isomer, unassigned; isomer 2) [Example 111, 2-Fluoro-6-[1-[6-methyl-4-oxo-2-(2-pyridyl)chromen-8-yl]ethylamino]benzoic acid, Isomer 2] | 1000 to 5000 nM | 1000 to 5000 nM | > 500 nM |  |
| Cc1cc(C(C)Nc2ccccc2C(=O)O)c2oc(-c3cnn(-c4cccnc4)c3)cc(=O)c2c1 (single isomer, unassigned; isomer 1) [Example 49, 2-[1-[6-Methyl-4-oxo-2-[1-(3-pyridyl)pyrazol-4-yl]chromen-8-yl]ethylamino]benzoic acid, Isomer 1] | > 10000 nM | > 10000 nM | > 500 nM |  |
| Cc1cc(C(C)Nc2ccccc2C(=O)O)c2oc(-c3cnn(-c4ccccc4)c3)cc(=O)c2c1 (single isomer, unassigned) [Example 80, 2-[1-[6-Methyl-4-oxo-2-(1-phenylpyrazol-4-yl)chromen-8-yl]ethylamino]benzoic acid, Isomer 2,2,2,2-trifluoroacetic acid] | < 500 nM | 5000 to 10000 nM |  | < 50 nM |
| COc1ccc(-n2cc(-c3cc(=O)c4cc(C)cc(C(C)Nc5ccccc5C(=O)O)c4o3)cn2)cc1C#N (single isomer, unassigned) [Example 86, 2-[1-[2-[1-(3-Cyano-4-methoxy-phenyl)pyrazol-4-yl]-6-methyl-4-oxo-chromen-8-yl]ethylamino]benzoic acid, Isomer 2,2,2,2-trifluoroacetic acid] | < 500 nM | 1000 to 5000 nM |  | 100 to 500 nM |
| Cc1cc(C(C)Nc2ccc(F)cc2C(=O)O)c2oc(-c3cccnc3)c(C)c(=O)c2c1 (single isomer, unassigned; isomer 1) [Example 120, 2-[1-[3,6-Dimethyl-4-oxo-2-(3-pyridyl)chromen-8-yl]ethylamino]-5-fluoro-benzoic acid, Isomer 1] | < 500 nM | 1000 to 5000 nM | < 50 nM |  |
| Cc1cc(C(C)Nc2ccccc2C(=O)O)c2oc(-c3cncc(F)c3)c(C)c(=O)c2c1 (single isomer, unassigned; isomer 1) [Example 45, 2-[1-[2-(5-Fluoro-3-pyridyl)-3,6-dimethyl-4-oxo-chromen-8-yl]ethylamino]benzoic acid, Isomer 1] | < 500 nM | 500 to 1000 nM | < 50 nM |  |
| Cc1cc(C(C)Nc2cccnc2C(=O)O)c2oc(-c3cccnc3)c(C)c(=O)c2c1 (single isomer, unassigned; isomer 1) [Example 116, 3-[1-[3,6-Dimethyl-4-oxo-2-(3-pyridyl)chromen-8-yl]ethylamino]pyridine-2-carboxylic acid, Isomer 1] | < 500 nM | 5000 to 10000 nM | 50 to 100 nM |  |
| Cc1cc(C(C)Nc2ccccc2C(=O)O)c2oc(-c3cnc(N(C)C)s3)c(C)c(=O)c2c1 (single isomer, unassigned; isomer 1) [Example 130, 2-[1-[2-[2-(Dimethylamino)thiazol-5-yl]-3,6-dimethyl-4-oxo-chromen-8-yl]ethylamino]benzoic acid, Isomer 1] | < 500 nM | 500 to 1000 nM | < 50 nM |  |
| CC(Nc1ccccc1C(=O)O)c1cc(F)cc2c(=O)cc(-c3ccccn3)oc12 (single isomer, unassigned) [Example 46, 2-[1-[6-Fluoro-4-oxo-2-(2-pyridyl)chromen-8-yl]ethylamino]benzoic acid, Isomer 1,2,2,2-trifluoroacetic acid] | < 500 nM | 5000 to 10000 nM |  | < 50 nM |
| Cc1c(-c2ccccn2)oc2c(C(C)Nc3ccc(Cl)nc3C(=O)O)cc(C(F)(F)F)cc2c1=O (single isomer, unassigned; isomer 1) [Example 61, 6-Chloro-3-[1-[3-methyl-4-oxo-2-(2-pyridyl)-6-(trifluoromethyl)chromen-8-yl]ethylamino]pyridine-2-carboxylic acid, Isomer 1] | < 500 nM | 500 to 1000 nM | < 50 nM |  |

Reference: US20230014445A1, “ALLOSTERIC CHROMENONE INHIBITORS OF PHOSPHOINOSITIDE 3-KINASE (PI3K) FOR THE TREATMENT OF DISEASE” (Petra Pharma Corporation, priority 2021, published 2023)
